Where “and” joins values, the source holds several entries; their conditions need not be identical. Identical values can stand only once. No end group written: not given here.
Tests used:
PHKs = experiment: CXCL8 expression in PHKs (qRT-PCR, normalized to actin); assay type: cell-based, human; conditions: for CXCL8 expression normalized to actin / CXCL8 induction by S. epidermidis CM with added peptide: PHKs; for CXCL8 expression normalized to actin / CXCL8 induction by S. epidermidis CM with added peptide / induction of CXCL8 expression in PHKs: 5 h; for induction of CXCL8 expression in PHKs: single treatment, 2 µM human AMPs or lugdunin, 0.8 µM (pro)-gallidermin or nisin
Protocol: Fig. 1 Lugdunin sensitizes epithelial cells for innate immune defense. a Primary human keratinocytes (PHKs) were pretreated with S. epidermidis conditioned medium (CM), indicated lugdunin concentrations, or the combination of both for 20 h. Subsequently, cells were infected with S. aureus for 1.5 h followed by cell lysis and determination of colony-forming units (CFUs). Shown is one representative experiment of three independent experiments with six technical replicates ± s.e.m. n.s., not significant. b Dorsal skin of mice was pretreated with S. epidermidis CM, 1.5 µg lugdunin alone or in combination with S. epidermidis CM for 24 h. Subsequently, S. aureus CFUs were determined. Horizontal lines represent the mean of each group ± s.e.m. c PHKs were treated with 2 μM lugdunin or with S. epidermidis CM alone or in combination for 20 h and subsequently expression of indicated antimicrobial peptides (AMPs) (respective protein names in brackets) was analyzed and normalized to actin. Shown is one representative experiment of three independent experiments with two technical replicates ± s.e.m. d PHKs were treated with 2 µM lugdunin or 100 ng/mL Pam2Cys for 5 h and subsequently the concentration of indicated cytokines in the supernatant was analyzed by LEGENDplex^TM (BioLegend). Shown is one representative experiment of three independent experiments with two technical replicates ± s.e.m. e PHKs were treated with increasing concentrations of lugdunin or 100 ng/mL Pam2Cys or Pam3Cys for 5 h and subsequently expression of chemokine (C-X-C motif) ligand 8 (CXCL8) was analyzed and normalized to actin. Shown is one representative experiment of three independent experiments, each with two technical replicates ± s.e.m. f, g Indicated cells were treated with 2 µM lugdunin or 100 ng/mL Pam2Cys as a positive control for 5 h and subsequently the concentration of CXCL8 (f) and interleukin-1α (IL-1α) (g) in the supernatant was analyzed by LEGENDplex^TM (BioLegend) and enzyme-linked immunosorbent assay (ELISA) (R&D Systems). Shown is one representative experiment of three independent experiments with two technical replicates ± s.e.m. Significant differences to control treatments were analyzed by ordinary one-way analysis of variance (ANOVA) followed by Dunnett’s multiple comparisons test (*P < 0.05; **P < 0.01; ***P < 0.001; ****P < 0.0001). n.d. = not detected. Source data are provided as a Source Data file
Fig. 4 Lugdunin amplifies the commensal-induced chemokine (C-X-C motif) ligand (CXCL8) induction. a Primary human keratinocytes (PHKs) were either treated with 2 μM of human antimicrobial peptides (AMPs) (black bars) or lugdunin (blue bars), or 0.8 μM (pro)-gallidermin or nisin (black bars), or in combination with S. epidermidis conditioned medium (CM) (gray and red striped bars) for 5 h, and subsequently expression of CXCL8 was analyzed and normalized to actin. Shown is one representative experiment of three independent experiments with two technical replicates ± s.e.m. b PHKs were treated with 2 μM human AMPs, 2 μM lugdunin, 0.8 μM of the other bacteriocins (gray bars) or the correspondent peptide combinations (white bars), or 50 ng/mL Pam2Cys, 10 ng/mL IL-1α, or S. epidermidis CM as controls (black bars), for 5 h and subsequently expression of CXCL8 was analyzed and normalized to actin. Shown is one representative experiment of three independent experiments with two technical replicates ± s.e.m. Significant differences to control treatments were analyzed by ordinary one-way analysis of variance (ANOVA) followed by Dunnett’s multiple comparisons test (***P < 0.001; ****P < 0.0001). Source data are provided as a Source Data file
After 5 h or 20 h of peptide treatment, PHKs were washed once with PBS, followed by the addition of RNA lysis buffer directly into the well. Total RNA was extracted using the Nucleospin RNA Kit (Macherey-Nagel) according to the manufacturer’s protocol. […]

B. subtilis = experiment: Antimicrobial testing (CFU) against B. subtilis; assay type: cell-based, Bacillus subtilis; conditions: for B. subtilis CFU normalized to untreated control (1,00): 3 h, mean
Protocol: (§1) For bactericidal testing, logarithmically growing staphylococci were resuspended in PBS (Sigma) containing 0.1% TSB (Carl Roth) and colony-forming unit (CFU) was adjusted to 3 × 10^6 CFU/mL. Different concentrations of single peptides and their combinations were diluted in PBS containing 0.1% TSB and incubated with bacteria in triplicates for 3 h at 37 °C and 150 rpm orbital shaking. Subsequently, serial dilutions (10^–1–10^–4) of the bacterial suspensions were prepared in PBS and 20 µL of each dilution was spotted in duplicates onto TSB plates and incubated at 37 °C overnight. The next day, the number of CFU was analyzed and the percentage of viable bacteria was determined by normalizing to the untreated control (100%). Results are illustrated in a S. aureus killing curve. In each experiment, negative control replicates (PBS + 0.1% TSB) as well as sterility control replicates were included.
(§2) Supplementary Figure 7: Efficiency of Lugdunin and DCD -1(L) combinations in 107 […]
(§3) logarithmically grown bacteria were incubated with indicated combinations of 109 lugdunin and DCD-1(L) in PBS containing 0.1% TSB at 37 °C orbital shaking. After 3 110 hours of incubation several dilutions of the bacterial suspensions were plated onto TSB 111 agar pl ates and incubated over night at 37 °C. The next day bacterial CFU were 112 counted. Each experiment was performed in triplicates. Data represent the mean 113 percentage of CFU normalized to the untreated control. Data represent the mean of at 114 least three independent experiments. 115
(§4) (1 picture or pasted object on this page, not shown here)

P. aeruginosa = experiment: Antimicrobial testing (CFU) against P. aeruginosa; assay type: cell-based, Pseudomonas aeruginosa; conditions: 3 h
E. coli = experiment: Antimicrobial testing (CFU) against E. coli; assay type: cell-based, Escherichia coli; conditions: 3 h, mean
S. epidermidis = experiment: Antimicrobial testing (CFU) against S. epidermidis; assay type: cell-based, Staphylococcus epidermidis; conditions: 3 h, mean
Protocol: as §1, §2, §3, §4

E. faecalis = experiment: Antimicrobial testing (CFU) against E. faecalis; assay type: cell-based, Enterococcus faecalis; conditions: 3 h, mean
P. mirabilis = experiment: Antimicrobial testing (CFU) against P. mirabilis; assay type: cell-based, Proteus mirabilis; conditions: 3 h, mean
Protocol: as §1, §2, §3, §4

[1] = 2 µM human AMPs, 2 µM lugdunin, 0.8 µM other bacteriocins or their combinations, 50 ng/mL Pam2Cys, 10 ng/mL IL-1α, S. epidermidis CM, two technical replicates, Fig 4b
[2] = peptide (2 µM human AMPs or lugdunin, 0.8 µM gallidermin or nisin) in combination with S. epidermidis CM, two technical replicates, Fig 4a
[3] = single peptide 1 µM, PBS + 0.1% TSB, 37 °C, mean of at least three experiments
[4] = single treatment: 2 µM human AMPs or lugdunin, 0.8 µM (pro)-gallidermin or nisin, or S. epidermidis CM, M = 1, two technical replicates (rows), Fig 4a

Row | Substance | CXCL8 expression normalized to actin (PHKs; [1]) | CXCL8 expression normalized to actin (PHKs; [2]) | CXCL8 induction by S. epidermidis CM with added peptide (PHKs; Fig 4a) | induction of CXCL8 expression in PHKs (PHKs; S. epidermidis CM, Fig 4a) | B. subtilis CFU normalized to untreated control (1,00) (B. subtilis; single peptide 1 µM) | B. subtilis CFU normalized to untreated control (1,00) (B. subtilis; single peptide 2 µM) | P. aeruginosa CFU normalized to untreated control (1,00) (P. aeruginosa; [3]) | P. aeruginosa CFU normalized to untreated control (1,00) (P. aeruginosa; single peptide 2 µM, mean) | E. coli CFU normalized to untreated control (1,00) (E. coli; single peptide 1 µM) | E. coli CFU normalized to untreated control (1,00) (E. coli; single peptide 2 µM) | S. epidermidis CFU normalized to untreated control (1,00) (S. epidermidis; single peptide 1 µM) | S. epidermidis CFU normalized to untreated control (1,00) (S. epidermidis; single peptide 2 µM) | E. faecalis CFU normalized to untreated control (1,00) (E. faecalis; single peptide 1 µM) | E. faecalis CFU normalized to untreated control (1,00) (E. faecalis; single peptide 2 µM) | CXCL8 expression normalized to actin (PHKs; [4]) | P. mirabilis CFU normalized to untreated control (1,00) (P. mirabilis; single peptide 1 µM) | P. mirabilis CFU normalized to untreated control (1,00) (P. mirabilis; single peptide 2 µM) | also measured
1 | IASKFLCTPGCAKTGSFNSYCC (also: bicyclic or more (positions not given here)) [Gallidermin, bacteriocin isolated from Staphylococcus gallinarum] | 3.22 and 3.395 | 2.713 and 2.789 | completely blocked | not able to induce CXCL8 expression |  |  |  |  |  |  |  |  |  |  |  |  |  | 
2 | ITSISLCTPGCKTGALMGCNMKTATCHCSIHVSK (not fully specified (bridges); also: lanthionine rings, places not given here) [Nisin, bacteriocin of Lactococcus lactis, purchased from Sigma] | 3.325 and 3.22 | 88.3403 and 93.3773 | non-significant increase | not able to induce CXCL8 expression |  |  |  |  |  |  |  |  |  |  |  |  |  | 
3 | LLGDFFRKSKEKIGKEFKRIVQRIKDFLRNLVPRTES [LL-37, human cathelicidin AMP] | 1.54 and 1.645 | 38.5859 and 33.1285 |  | not able to induce CXCL8 expression |  |  |  |  |  |  |  |  |  |  |  |  |  | 
4 | Lugdunin | 43.47 and 44.695 | 1093.7 and 1265.07 | over 1000 fold | over 40 fold | 0,81 | 0,60 | 1,34 | 1,01 | 1,05 | 1,34 | 1,08 | 0,86 | 1,21 | 1,27 | 44.695 and 43.47 | 1,13 | 0,84 | B. subtilis CFU normalized to untreated control (1,00) (B. subtilis; single peptide 3 µM): 0,44; susceptibility of B. subtilis (in words) (B. subtilis; text to Supp Fig 7): susceptible; P. aeruginosa CFU normalized to untreated control (1,00) (P. aeruginosa; single peptide 3 µM, mean): 1,41; E. coli CFU normalized to untreated control (1,00) (E. coli; single peptide 3 µM): 1,27; S. epidermidis CFU normalized to untreated control (1,00) (S. epidermidis; single peptide 3 µM): 1,20; E. faecalis CFU normalized to untreated control (1,00) (E. faecalis; single peptide 3 µM): 0,99; CXCL8 expression normalized to actin (PHKs; lugdunin 0.5 µM, medium = 1, technical replicates, Fig 1e): 1.93 and 1.44 and 0.406 and 0.518; CXCL8 expression normalized to actin (PHKs; lugdunin 1 µM, technical replicates, Fig 1e): 10.23 and 9.29 and 0.973 and 1.087; CXCL8 expression normalized to actin (PHKs; lugdunin 2 µM, technical replicates, Fig 1e): 43.4456 and 47.5424 and 22.549 and 29.548; CXCL8 expression normalized to actin (PHKs; lugdunin 3 µM, technical replicates, Fig 1e): 64.669 and 66.487; CXCL8 expression normalized to actin (PHKs; lugdunin 5 µM, technical replicates, Fig 1e): 11.7628 and 11.128; CXCL8 expression normalized to actin (PHKs; lugdunin 10 µM, technical replicates, Fig 1e): 2.0508 and 6.298; lugdunin concentrations that induced expression and release of CXCL8 in PHKs (PHKs; higher concentrations did not induce CXCL8 production, text to Fig 1d, e): up to 3 µM; P. mirabilis CFU normalized to untreated control (1,00) (P. mirabilis; single peptide 3 µM): 0,98
5 | MEAVKEKNELFDLDVKVNAKESNDSGAEPRIASKFLCTPGCAKTGSFNSYCC [Pro-Gallidermin, non-bactericidal pro-form of gallidermin] | 3.465 and 3.43 |  |  |  |  |  |  |  |  |  |  |  |  |  |  |  |  | 
6 | SSLLEKGLDGAKKAVGGLGKLGKDAVEDLESVGKGAVHDVKDVLDSV [DCD-1, dermcidin-derived human AMP of eccrine sweat glands] | 13.37 and 13.02 | 61.3666 and 64.6468 |  | 10 fold | 1,14 | 1,04 | 0,93 | 1,21 | 1,31 | 1,87 | 1,51 | 0,94 | 1,48 | 1,58 | 13.02 and 13.37 | 1,05 | 0,98 | 
7 | SSLLEKGLDGAKKAVGGLGKLGKDAVEDLESVGKGAVHDVKDVLDSVL [DCD-1L, dermcidin-derived human AMP of eccrine sweat glands] | 2.31 and 2.52 | 45.0983 and 49.3507 |  |  | 0,96 | 0,63 | 1,39 | 1,19 | 1,26 | 1,92 | 1,43 | 1,33 | 1,40 | 1,55 | 2.52 and 2.31 | 0,95 | 1,10 | 
